Test [1] has as its target T1, human glycine transporter 1b (GlyT1) (Homo sapiens, UniProt P48067).
T1 construct: expressed in transfected cells
T1 sequence (P48067 1-652 isoform P48067-3): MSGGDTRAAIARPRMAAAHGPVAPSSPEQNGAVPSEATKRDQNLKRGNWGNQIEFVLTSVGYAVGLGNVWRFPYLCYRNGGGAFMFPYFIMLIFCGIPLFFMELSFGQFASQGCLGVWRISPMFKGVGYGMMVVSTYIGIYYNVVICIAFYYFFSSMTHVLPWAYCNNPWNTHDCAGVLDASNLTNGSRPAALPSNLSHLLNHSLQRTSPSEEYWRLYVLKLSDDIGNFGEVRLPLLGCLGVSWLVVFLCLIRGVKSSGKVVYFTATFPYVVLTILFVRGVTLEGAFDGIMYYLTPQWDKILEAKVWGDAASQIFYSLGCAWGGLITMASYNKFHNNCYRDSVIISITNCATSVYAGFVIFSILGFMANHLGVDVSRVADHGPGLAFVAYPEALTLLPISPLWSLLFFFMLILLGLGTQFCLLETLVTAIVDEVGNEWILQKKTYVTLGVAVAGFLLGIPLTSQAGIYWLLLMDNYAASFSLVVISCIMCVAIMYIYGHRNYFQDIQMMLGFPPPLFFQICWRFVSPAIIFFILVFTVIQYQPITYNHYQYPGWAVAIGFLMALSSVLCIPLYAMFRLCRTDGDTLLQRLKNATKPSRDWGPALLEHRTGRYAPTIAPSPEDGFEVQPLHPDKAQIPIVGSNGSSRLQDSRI
As to the kind of experiment: Inhibition of glycine transporter 1 in a cellular assay ([3H]-glycine uptake into CHO cells). The settings on record: pure compounds, CHO cells expressing GlyT1, 60 nM [3H]-glycine, 30 minutes, room temperature; for IC50: read-out: IC50 for tritiated glycine uptake. The class given is cell-based. The method, then:
CHO cells stably expressing the human glycine transporter 1b cDNA (GlyT1) were routinely grown in Dulbecco's Modified Eagle's Medium (Invitrogen, Carlsbad, USA) containing 10% dialysed foetal calf serum, penicillin, streptomycin, proline and the antibiotic G418. Cells were harvested by trypsinisation one day prior to the assay and were seeded in the above mentioned medium. Immediately prior to the assay, the medium was replaced by uptake buffer containing 150 mM NaCl, 1 mM CaCl2, 2.5 mM KCl, 2.5 mM MgCl2, 10 mM Glucose and 10 mM N-2-hydroxyethylpiperazine-N′-2-ethanesulfonic acid (HEPES buffer).
Glycine uptake into the cells was determined by addition of 60 nM radio-labelled [^3H]-glycine (Amersham Biosciences GE Healthcare, Slough, UK) and incubation for 30 minutes at room temperature. Following removal of unincorporated label by gentle washing three times with the above buffer, incorporated glycine was quantified by liquid scintillation counting.

Test [2] relates to GluR1 (cell surface presence of AMPA receptor 1). The test can be described thus: Hippocampal slice cultures, immunohistochemistry of synaptic marker GluR1. It is filed as cell-based, Wistar rats. The arrangement: key to GluR1, relative activation of synaptic marker: ++++ shows a qualitative maximal activation; ++ and + signify a half-maximum and a moderate activation, respectively; ++ and + signify a half-maximum and a moderate activation, respectively; ± indicates no change in immunoreactivity. Conditions: 15 min treatment after 48 h in culture; vs sister cultures treated with buffer. The method, then: (§1) Seven-day-old Wistar rats were decapitated using a guillotine. In less than 1 minute the skull was opened, the cerebral hemispheres were separated and transferred and both hippocampi were dissected and transferred into ice-cold buffer containing 137 mM NaCl, 5 mM KCl, 0.85 mM Na2HPO4, 1.5 mM CaCl2, 0.66 mM KH2PO4, 0.28 mM MgSO4, 1 mM MgCl2, 2.7 mM NaHCO3, 1 mM Kynurenic acid and 0.6% D-glucose. Transverse hippocampal slices (400 μm) were prepared using a vibrating blade microtome (VT1200S; Leica Microsystems (Schweiz) AG, Heerbrugg, Switzerland) in the same buffer. Hippocampal slices were individually placed on membrane inserts (Millicell Culture Plate Inserts, 0.4 μm) and cultivated at 35° C., 5% CO2, 95% humidity in a medium containing a 1:1 mixture of BME and MEM (both from Invitrogen) containing 25% heat-inactivated horse serum, 1× GlutaMAX, 1× Penicillin/Streptomycin, 0.6% glucose and 1 mM Kynurenic acid (Stoppini 1991 J. Neurosci. Methods 37(2):173-82). After 48 h in culture, synaptic NMDA receptors were activated by addition of Stevia extract, its major constituents or control substances for 15 min in 140 mM NaCl, 5 mM KCl, 1.3 mM CaCl2, 25 mM HEPES (pH 7.3), 33 mM D-glucose and 0.02 mM bicuculline methiodide. […] An additional positive control comprised the addition of 200 μM glycine to sister cultures. After the treatments, sections were washed and fixed for immunohistochemistry. Markers of enhanced synaptic activity, normally associated with long-term potentiation, representing an ex vivo model of learning and memory were quantitated (see Table 3, below). Treatment of hippocampal cultures with Stevia extract, steviol, isosteviol and stevioside induced one or more biochemical markers typical for LTP (pCREB: activated form of the cAMP response element binding protein; pMAPK: activated form of the mitogen-activated protein kinase; […]

The subject of test [3] is pCREB (activated form of the cAMP response element binding protein). As to the kind of experiment: Hippocampal slice cultures, immunohistochemistry of synaptic marker pCREB. It is filed as cell-based, Wistar rats. The arrangement: key: ++++ shows a qualitative maximal activation; ++ and + signify a half-maximum and a moderate activation, respectively; ++ and + signify a half-maximum and a moderate activation, respectively; ± indicates no change in immunoreactivity. The settings on record: 15 min treatment after 48 h in culture; vs sister cultures treated with buffer. The method, then: as §1

In test [4] the test system is pMAPK (activated form of the mitogen-activated protein kinase). As to the kind of experiment: Hippocampal slice cultures, immunohistochemistry of synaptic marker pMAPK. Set-up: key: ++++ shows a qualitative maximal activation; ++ and + signify a half-maximum and a moderate activation, respectively; ++ and + signify a half-maximum and a moderate activation, respectively; ± indicates no change in immunoreactivity. The settings on record: 15 min treatment after 48 h in culture; vs sister cultures treated with buffer. The class given is cell-based, Wistar rats. The method, then:
as §1

The test system of test [5] is NMDA receptor. The settings on record: rat hippocampal slice, Schaffer collateral stimulation (Bergeron et al 1998); cited from earlier work.
Test [6] deals with NMDA receptor. Conditions: mouse hippocampal slice, Schaffer collateral stimulation (Bergeron et al 1998); cited from earlier work.
The test system of test [7] is adult mice. Conditions: systemic administration, adult mice (Kinney et al 2003); cited from earlier work.
The test system of test [8] is adult mice. Conditions: systemic administration (Kinney et al 2003); cited from earlier work.

Read-outs that look alike come from different tables or passages of the source.

We go through seven molecules from US20110038957A1, “NOVEL NUTRACEUTICAL COMPOSITIONS CONTAINING STEVIA EXTRACT OR STEVIA EXTRACT CONSTITUENTS AND USES THEREOF” (priority 2007, published 2011).

In the case of `C=C1C[C@@]23CC[C@H]4[C@@](C)(CCC[C@@]4(C)C(=O)O[C@@H]4O[C@H](CO)[C@@H](O)[C@H](O)[C@H]4O)[C@@H]2CC[C@]1(O[C@@H]1O[C@H](CO)[C@@H](O)[C@H](O)[C@H]1O[C@@H]1O[C@H](CO)[C@@H](O)[C@H](O)[C@H]1O)C3` [Stevioside], in test [1], the “IC50 for tritiated glycine uptake” value is “inactive”. The “GluR1, relative activation of synaptic marker” value in test [2] was “±”. The “pCREB, relative activation of synaptic marker” value (from here on “pCREB, relative activation”) in test [3] was “±”. Also, the “pMAPK, relative activation of synaptic marker” value (“pMAPK, relative activation” for short) in test [4] was “++”.

On to `C=C1C[C@@]23CC[C@H]4[C@@](C)(CCC[C@@]4(C)C(=O)O[C@@H]4O[C@H](CO)[C@@H](O)[C@H](O)[C@H]4O)[C@@H]2CC[C@]1(O[C@@H]1O[C@H](CO)[C@@H](O)[C@H](O[C@@H]2O[C@H](CO)[C@@H](O)[C@H](O)[C@H]2O)[C@H]1O[C@@H]1O[C@H](CO)[C@@H](O)[C@H](O)[C@H]1O)C3` [Rebaudioside A], for which, in test [1], the “IC50 for tritiated glycine uptake” value was “inactive”. In addition, in test [2], the “GluR1, relative activation of synaptic marker” value is “±”. In addition, the “pCREB, relative activation” value in test [3] is reported as “±”. Further, in test [4], the “pMAPK, relative activation” value is reported as “±”.

Regarding `C=C1C[C@@]23CC[C@H]4[C@@](C)(CCC[C@@]4(C)C(=O)O)[C@@H]2CC[C@]1(O)C3` [Steviol], the “IC50 for tritiated glycine uptake” value in test [1] is “inactive”. In test [2], the “GluR1, percentage increase of control values” was 340%. Moreover, the “pCREB, relative activation” value in test [3] is recorded as “++”. In addition, in test [4], the “pMAPK, relative activation” value is listed as “±”.

For the molecule `CN(CCC(Oc1ccc(-c2ccccc2)cc1)c1ccc(F)cc1)CC(=O)O` (stereo not shown) [NFPS, N-[3-(4′-fluorophenyl)-3-(4′-phenylphenoxy)] propylsarcosine], the “NMDA receptor responses in CA1 pyramidal cells” value in test [5] and in test [6] was “enhanced NMDA receptor responses in CA1 pyramidal cells were observed” in each case. The “Prepulse inhibition of the acoustic startle response” value in test [7] was “enhanced prepulse inhibition of the acoustic startle response”. Also, the “LTP in the dentate gyrus” value in test [8] is recorded as “increased LTP in the dentate gyrus”.

As to Isosteviol, the “IC50 for tritiated glycine uptake” value in test [1] is “inactive”. In addition, the “GluR1, percentage increase of control values” in test [2] is given as 361%. Further, the “pCREB, relative activation” value in test [3] is reported as “+”. In addition, the “pMAPK, relative activation” value in test [4] is recorded as “±”.

As to `CN(CC[C@@H](Oc1ccc(C(F)(F)F)cc1)c1ccccc1)CC(=O)O` [ORG24598, reference compound], the IC50 in test [1] is 0.02 µM.

In the case of `CNCC(=O)O` [Sarcosine, reference compound], the IC50 in test [1] is 35.9 µM.
